System: white blood cell count
Test: COLCOT white blood cell counts (total, lymphocytes, neutrophils)
Format: in vivo, human
Conditions: for Total white blood cell count, geometric mean / Total white blood cell count, Adjusted GM percent change: N=992
From the text: Additional prespecified exploratory end points included the change from baseline to 6 months in the high-sensitivity C-reactive protein level and the change from baseline to 12 months in the white-cell count. The C-reactive protein biomarker substudy was implemented after a protocol amendment and was optional for sites and for patients; 34 sites chose to participate in this substudy.
The analysis of the primary end point was repeated in the per-protocol population (i.e., patients without major protocol deviations). Secondary and exploratory end points expressed as time to event were analyzed similarly. The changes from baseline to follow-up were analyzed with the use of an analysis of covariance model with adjustment for baseline value, and estimates of treatment effect are presented with 95% confidence intervals.
In Table 8, the placebo-adjusted geometric mean percent change was obtained by exponentiating the adjusted mean difference between groups from the analysis of covariance model (based on log-transformed data), then subtracting 1 and multiplying by 100.
In addition, the C-reactive protein biomarker sub-study was implemented following a protocol amendment and was optional for sites and for patients; 34 sites accepted to participate in this substudy. There were 213 and 208 patients who provided blood samples at baseline and 6 months, respectively. Paired baseline and 6-month hs-CRP values were available in 207 patients. Clinically available white blood cell counts were obtained from 2598 patients at baseline and 1998 patients at 12 months, and paired baseline and 12-month values were available in 1972 patients. Statistical analysis was conducted on the patients who provided both baseline and follow-up data and as these were exploratory analyses, no missing data was imputed.
Information about white-cell counts at baseline and at the 12-month follow-up were also available for a relatively small subgroup of 1972 patients. The adjusted geometric mean percent changes from baseline to 1 year in the total white-cell count were −18.8% in the colchicine group and −19.0% in the placebo group, with no significant difference between groups (0.3% percentage points; 95% CI, −2.2 to 2.7).

[1] = baseline to 12 months, colchicine vs placebo

With COc1cc2c(c(OC)c1OC)-c1ccc(OC)c(=O)cc1[C@@H](NC(C)=O)CC2 [Colchicine, colchicine] the “Circulating lymphocytes, geometric mean” value (at 12 months) was 1.83 10^3/μL, the “Circulating neutrophils, geometric mean” value (at 12 months) was 3.95 10^3/μL and the “Total white blood cell count, geometric mean” value (at 12 months) was 6.95 10^3/μL. The “Circulating lymphocytes, geometric mean” value (at Randomization (baseline)) was 1.79 10^3/μL, the “Circulating neutrophils, geometric mean” value (at Randomization (baseline)) was 5.45 10^3/μL and the “Total white blood cell count, geometric mean” value (at Randomization (baseline)) was 8.54 10^3/μL. The “Circulating lymphocytes, Adjusted GM percent change” value (baseline to 12 months) was 1.80%, the “Circulating neutrophils, Adjusted GM percent change” value (baseline to 12 months) was −27.63% and the “Total white blood cell count, Adjusted GM percent change” value (baseline to 12 months) was −18.81%. For the same molecule, the “Total white blood cell count, Adjusted GM percent change” value (baseline to 12 months, listed as colchicine) was −18.8%, the “Circulating lymphocytes, Placebo-adjusted GM percent change” value [1] was 1.10% and the “Circulating neutrophils, Placebo-adjusted GM percent change” value [1] was 0.45%. The “Total white blood cell count, Placebo-adjusted GM percent change” value [1] was 0.26% and the “Total white blood cell count, Placebo-adjusted GM percent change” value (baseline to 12 months, colchicine vs placebo, listed as colchicine) was 0.3%.
